Where two headings read alike, the source gives them in different places.
Legend:
[1] = Pharmacokinetic test of compounds in rats (plasma, LC/MS/MS); format: in vivo, male SD rats; conditions: for Vd: read-out: Apparent volume of distribution Vd; for AUC(0-t): read-out: Area under the curve AUC0-last; for half-life: read-out: Half-life T1/2 (converted); for bioavailability: read-out: Bioavailability F %; for Cmax: read-out: Peak concentration Cmax
Protocol: Experimental purpose: male SD rats aged 7-9 weeks were selected as test animals, and the drug concentrations of the compounds in plasma at different time points after single intravenous injection (IV) and intragastric administration (PO) of the compounds were measured by an LC/MS/MS method, so that the pharmacokinetic behavior of the compounds disclosed herein in rats was studied, and the pharmacokinetic characteristic of the compounds was evaluated.
Drug preparation: the compounds were all prepared into clear solution by taking 5% DMSO+10% solutol+85% water as vehicle, and were used for administration in IV and PO groups. The dose of each compound administered was: IV, 3 mg/kg; PO, 10 mg/kg.

BaF3 ETV6-NTRK3-G623R = molecular target: T1, BaF3 ETV6-NTRK3-G623R (Homo sapiens, UniProt Q16288, G623R, cells depend on it); test: Inhibitory activity against cell proliferation (CellTiter-Glo, 72 hours); format: cell-based; conditions: read-out: Half maximal inhibitory concentration IC50 of cells, BaF3 ETV6-NTRK3-G623R
T1 construct: fused on or other part: N-terminal part of ETV6 (TEL) as fusion partner (part of the key); P41212 (Transcription factor ETV6)
Protocol: Adenosine Triphosphate (ATP) is an energy carrier commonly used in various life activities in nature, and is the minimum unit for energy storage and transfer. The CellTiter-Glo™ cell viability assay kit uses luciferase as an assay agent, which requires the involvement of ATP in luminescence. The CellTiter-Glo™ reagent is added into cell culture medium to measure the luminescence value. The luminescence signal is directly proportional to the amount of ATP in the system, and the ATP is positively correlated with the number of viable cells. Therefore, the proliferation of cells can be detected by detecting the ATP content using the CellTiter-Glo kit. In this test, the cell lines used are Ba/F3 LMNA-NTRK1-WT, Ba/F3 LMNA-NTRK1-F589L, BaF3 LMNA-NTRK1-G595R, BaF3 LMNA-NTRK1-G667A, BaF3 ETV6-NTRK3-WT, BaF3 ETV6-NTRK3-G623R, and Ba/F3 SLC34A2-ROS1-WT stable cell strains, 5000 cells/well.
a) Cells in the logarithmic growth phase were collected and counted using a […]. The cell viability was detected by the trypan blue exclusion method, and the cell viability was kept over 90%.
b) The cell concentration was adjusted; 90 μL of the cell suspension was added to a 96-well plate.
c) Cells in the 96-well plate were incubated overnight at 37° C. with 5% CO2 and 95% humidity.
a) A 10-fold compound solution was prepared, with the highest concentration being 10 μM (a total of 9 concentrations, 3-fold dilution). 10 μL of compound solution was added to each well of a 96-well plate inoculated with cells, and three duplicate wells were set for each compound concentration.
b) The cells in the 96-well plate added with compound were incubated for 72 hours at 37° C. with 5% CO2 and 95% humidity, followed by the CTG (CellTiter-Glo) analysis.
a) The CTG reagent was thawed and the cell plate was equilibrated to room temperature for 30 minutes.
b) An equal volume of CTG solution was added to each well.
c) The plate was shaken on an orbital shaker for 5 minutes to lyse the cells.
d) The cell plate was placed at room temperature for 20 minutes to stabilize the luminescence signal.
e) The luminescence value was read.
The data were analyzed using GraphPad Prism 5.0 software, fitted with nonlinear S-curve regression to give dose-response curves, and IC50 values were calculated therefrom.

TrkC = molecular target: T2, TrkC (Homo sapiens, UniProt Q16288); test: Kinase inhibitory activity (33P-ATP, filtration-binding method, Reaction Biology Corp.); format: biochemical
T2 construct: purchased Reaction Biology Corp
Protocol: (§1) The mixture was incubated at room temperature for 20 minutes, added with ^33P-ATP at a certain concentration to start the reaction, and then incubated at room temperature for 120 minutes. Finally, the radioactivity of the reactant was detected by the filtration-binding method. The final kinase activity was expressed as the ratio of the remaining kinase activity in the test sample to the kinase activity of the DMSO control. The dose-response curves were fitted and IC50 values were calculated by GraphPad software.

TrkA = molecular target: T3, TrkA (Homo sapiens, UniProt P04629); test: as above; format: biochemical
T3 construct: purchased Reaction Biology Corp
Protocol: as §1

ALK = molecular target: T4, ALK (Homo sapiens, UniProt Q9UM73); test: as above; format: biochemical
T4 construct: purchased Reaction Biology Corp
Protocol: as §1

TrkA-G595R = molecular target: T5, TrkA-G595R (Homo sapiens, UniProt P04629, G595R); test: as above; format: biochemical
T5 construct: purchased Reaction Biology Corp
Protocol: as §1

Ros1 = molecular target: T6, Ros1 (Homo sapiens, UniProt P08922); test: as above; format: biochemical
T6 construct: purchased Reaction Biology Corp
Protocol: as §1

BaF3 ETV6-NTRK3-WT = molecular target: T7, BaF3 ETV6-NTRK3-WT (Homo sapiens, UniProt Q16288); test: Inhibitory activity against cell proliferation (CellTiter-Glo, 72 hours); format: cell-based; conditions: read-out: Half maximal inhibitory concentration IC50 of cells, BaF3 ETV6-NTRK3-WT
T7 construct: fused on or other part: N-terminal part of ETV6 (TEL) as fusion partner (part of the key); P41212 (Transcription factor ETV6)
How it was run: (§2)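 Log-phase Ba/F3 cells (trypan blue viability above 90%) were treated in triplicate with a 9-point, 3-fold compound series. ATP-dependent luminescence was read after CellTiter-Glo addition, and IC50 values came from nonlinear sigmoidal dose-response fits.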

Ba/F3 LMNA-NTRK1-F589L = molecular target: T8, Ba/F3 LMNA-NTRK1-F589L (Homo sapiens, UniProt P04629, F589L, cells depend on it); test: as above; format: cell-based; conditions: read-out: Half maximal inhibitory concentration IC50 of cells, Ba/F3 LMNA-NTRK1-F589L
T8 construct: fused on or other part: N-terminal part of LMNA as fusion partner (part of the key); P02545 (Prelamin-A/C)
How it was run: as §2

Ba/F3 LMNA-NTRK1-WT = molecular target: T9, Ba/F3 LMNA-NTRK1-WT (Homo sapiens, UniProt P04629); test: as above; format: cell-based; conditions: read-out: Half maximal inhibitory concentration IC50 of cells, Ba/F3 LMNA-NTRK1-WT
T9 construct: fused on or other part: N-terminal part of LMNA as fusion partner (part of the key); P02545 (Prelamin-A/C)
How it was run: as §2

BaF3 LMNA-NTRK1-G667A = molecular target: T10, BaF3 LMNA-NTRK1-G667A (Homo sapiens, UniProt P04629, G667A, cells depend on it); test: as above; format: cell-based; conditions: read-out: Half maximal inhibitory concentration IC50 of cells, BaF3 LMNA-NTRK1-G667A
T10 construct: fused on or other part: N-terminal part of LMNA as fusion partner (part of the key); P02545 (Prelamin-A/C)
How it was run: as §2

BaF3 LMNA-NTRK1-G595R = molecular target: T11, BaF3 LMNA-NTRK1-G595R (Homo sapiens, UniProt P04629, G595R, cells depend on it); test: as above; format: cell-based; conditions: read-out: Half maximal inhibitory concentration IC50 of cells, BaF3 LMNA-NTRK1-G595R
T11 construct: fused on or other part: N-terminal part of LMNA as fusion partner (part of the key); P02545 (Prelamin-A/C)
How it was run: as §2

[2] = male, SD, rat, plasma, IV, 3 mg/kg
[3] = male, SD, rat, plasma, PO, 10 mg/kg
[4] = read-out: Half maximal inhibitory concentration IC50 for kinases, ALK

T4 sequence (Q9UM73 19-1620): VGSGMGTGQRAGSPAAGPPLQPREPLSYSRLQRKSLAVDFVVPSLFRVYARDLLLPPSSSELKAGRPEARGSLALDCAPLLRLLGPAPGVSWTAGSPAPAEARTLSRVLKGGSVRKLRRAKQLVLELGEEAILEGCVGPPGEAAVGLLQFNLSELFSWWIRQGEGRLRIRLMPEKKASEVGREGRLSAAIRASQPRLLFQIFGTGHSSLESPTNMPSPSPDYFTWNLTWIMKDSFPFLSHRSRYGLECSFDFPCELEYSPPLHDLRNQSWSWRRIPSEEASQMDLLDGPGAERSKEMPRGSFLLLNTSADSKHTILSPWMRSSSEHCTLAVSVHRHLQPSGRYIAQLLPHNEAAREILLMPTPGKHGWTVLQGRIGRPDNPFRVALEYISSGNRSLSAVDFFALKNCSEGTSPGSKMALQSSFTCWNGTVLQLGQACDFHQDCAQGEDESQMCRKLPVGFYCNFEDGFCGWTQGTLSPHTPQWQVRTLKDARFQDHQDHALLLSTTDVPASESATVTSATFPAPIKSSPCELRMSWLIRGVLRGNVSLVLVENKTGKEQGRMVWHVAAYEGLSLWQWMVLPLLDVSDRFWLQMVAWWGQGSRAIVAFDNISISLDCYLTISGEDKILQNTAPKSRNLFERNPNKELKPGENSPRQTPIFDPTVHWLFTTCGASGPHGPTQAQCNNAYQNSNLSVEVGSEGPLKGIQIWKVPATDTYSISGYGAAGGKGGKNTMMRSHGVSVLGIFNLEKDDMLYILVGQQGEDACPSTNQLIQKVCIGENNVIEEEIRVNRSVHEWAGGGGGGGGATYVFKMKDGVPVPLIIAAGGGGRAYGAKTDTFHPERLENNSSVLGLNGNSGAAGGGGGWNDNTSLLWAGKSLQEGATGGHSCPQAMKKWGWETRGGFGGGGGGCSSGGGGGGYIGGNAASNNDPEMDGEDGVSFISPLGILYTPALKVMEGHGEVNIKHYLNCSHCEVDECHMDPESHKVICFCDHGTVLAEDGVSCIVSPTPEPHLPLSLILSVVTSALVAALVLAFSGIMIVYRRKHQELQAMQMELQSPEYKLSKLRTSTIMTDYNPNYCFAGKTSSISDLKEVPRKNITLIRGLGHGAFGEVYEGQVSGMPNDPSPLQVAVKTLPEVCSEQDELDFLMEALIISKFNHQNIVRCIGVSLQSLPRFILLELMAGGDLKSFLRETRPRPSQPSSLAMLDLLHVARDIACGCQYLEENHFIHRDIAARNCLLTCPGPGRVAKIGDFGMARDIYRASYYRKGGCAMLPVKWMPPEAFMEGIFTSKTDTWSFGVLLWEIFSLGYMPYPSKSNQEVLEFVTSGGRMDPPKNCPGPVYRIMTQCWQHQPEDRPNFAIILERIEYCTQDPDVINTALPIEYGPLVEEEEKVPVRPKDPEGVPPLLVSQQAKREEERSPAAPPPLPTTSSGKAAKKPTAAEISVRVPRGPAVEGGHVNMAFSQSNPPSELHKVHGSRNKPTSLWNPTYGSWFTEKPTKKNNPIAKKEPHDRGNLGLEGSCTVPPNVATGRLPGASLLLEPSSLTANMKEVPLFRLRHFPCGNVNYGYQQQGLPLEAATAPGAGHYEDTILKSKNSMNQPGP
T1 sequence (Q16288 whole entry G623R, the tested form may be a part): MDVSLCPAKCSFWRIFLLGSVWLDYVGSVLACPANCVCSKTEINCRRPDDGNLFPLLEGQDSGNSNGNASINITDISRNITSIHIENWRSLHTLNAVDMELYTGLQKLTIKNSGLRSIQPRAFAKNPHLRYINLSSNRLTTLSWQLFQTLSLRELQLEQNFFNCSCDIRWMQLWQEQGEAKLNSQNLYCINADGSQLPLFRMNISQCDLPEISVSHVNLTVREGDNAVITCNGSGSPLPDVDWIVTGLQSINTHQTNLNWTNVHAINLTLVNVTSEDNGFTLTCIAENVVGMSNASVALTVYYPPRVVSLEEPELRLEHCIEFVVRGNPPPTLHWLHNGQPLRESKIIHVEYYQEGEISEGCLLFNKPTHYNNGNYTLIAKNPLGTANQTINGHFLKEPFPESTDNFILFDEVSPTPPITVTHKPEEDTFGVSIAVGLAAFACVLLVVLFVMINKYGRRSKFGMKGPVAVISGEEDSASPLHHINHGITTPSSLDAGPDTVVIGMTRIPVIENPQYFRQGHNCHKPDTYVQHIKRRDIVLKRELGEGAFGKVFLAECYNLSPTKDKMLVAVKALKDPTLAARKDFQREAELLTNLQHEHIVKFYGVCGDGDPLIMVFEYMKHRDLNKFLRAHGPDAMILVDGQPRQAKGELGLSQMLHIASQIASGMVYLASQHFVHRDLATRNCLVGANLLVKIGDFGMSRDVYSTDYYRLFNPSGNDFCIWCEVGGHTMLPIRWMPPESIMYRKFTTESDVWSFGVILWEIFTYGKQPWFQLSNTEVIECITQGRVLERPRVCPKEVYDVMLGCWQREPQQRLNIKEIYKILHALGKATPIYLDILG
T8 sequence (P04629 whole entry F589L, the tested form may be a part): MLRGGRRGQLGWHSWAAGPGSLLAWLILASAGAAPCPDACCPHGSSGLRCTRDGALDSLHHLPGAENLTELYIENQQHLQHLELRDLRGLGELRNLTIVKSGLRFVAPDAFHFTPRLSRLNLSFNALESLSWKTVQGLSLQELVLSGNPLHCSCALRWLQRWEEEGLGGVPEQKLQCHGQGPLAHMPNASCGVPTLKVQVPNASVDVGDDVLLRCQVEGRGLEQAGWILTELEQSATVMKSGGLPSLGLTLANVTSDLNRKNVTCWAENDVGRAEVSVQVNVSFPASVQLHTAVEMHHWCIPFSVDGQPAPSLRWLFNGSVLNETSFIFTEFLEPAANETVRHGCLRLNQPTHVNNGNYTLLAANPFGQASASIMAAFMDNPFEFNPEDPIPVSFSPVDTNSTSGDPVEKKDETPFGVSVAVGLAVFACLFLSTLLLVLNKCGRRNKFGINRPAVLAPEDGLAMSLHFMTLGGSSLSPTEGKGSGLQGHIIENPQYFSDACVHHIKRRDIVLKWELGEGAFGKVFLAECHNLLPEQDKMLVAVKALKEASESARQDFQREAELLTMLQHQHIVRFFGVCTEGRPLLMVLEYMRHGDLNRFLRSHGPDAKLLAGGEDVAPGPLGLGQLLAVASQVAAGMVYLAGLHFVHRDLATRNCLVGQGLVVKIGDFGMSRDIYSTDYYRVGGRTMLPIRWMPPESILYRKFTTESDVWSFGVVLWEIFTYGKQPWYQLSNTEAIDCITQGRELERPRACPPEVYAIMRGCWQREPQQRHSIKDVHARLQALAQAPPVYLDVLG
T7 sequence (Q16288 whole entry, stated change not applied, the tested form may be a part): as the sequence (Q16288 whole entry G623R, the tested form may be a part) above, with R623G counted along it
T11 sequence (P04629 whole entry G595R, the tested form may be a part): as the sequence (P04629 whole entry F589L, the tested form may be a part) above, with L589F, G595R counted along it

Row | Compound | Apparent clearance Cl ([1]; IV, 3 mg/kg) [mL/min/kg] | Vd [1, 2] [L/kg] | AUC(0-t) [1, 2] [µM·h] | half-life [1, 2] [min] | AUC(0-t) [1, 3] [µM·h] | bioavailability [1, 3] [%] | Cmax [1, 3] [nM] | GI50 (BaF3 ETV6-NTRK3-G623R) [nM] | IC50 (TrkC) [nM] | IC50 (TrkA) [nM] | IC50 (ALK) [nM] | IC50 (TrkA-G595R) [nM] | IC50 (Ros1) [nM] | GI50 (BaF3 ETV6-NTRK3-WT) [nM] | GI50 (Ba/F3 LMNA-NTRK1-F589L) [nM] | GI50 (Ba/F3 LMNA-NTRK1-WT) [nM] | GI50 (BaF3 LMNA-NTRK1-G667A) [nM] | GI50 (BaF3 LMNA-NTRK1-G595R) [nM] | Tmax ([1]; male, SD, rat, plasma, PO, 10 mg/kg, read-out: Time to peak Tmax) [min] | IC50 (ALK; [4]) [nM]
1 | O=C1NC2(CC2)COc2ncc(F)cc2C2COCCN2c2ccn3ncc1c3n2 (single isomer, unassigned) [WX001B] | 19.7 | 1.9 | 6.24 | 72 | 8.07 | 39 | 1800 | 2.3 | 0.2 | 2.4 | 182 | 3.5 | 1 | 2.6 | 7.7 | 0.6 | 0.8 | 2.7 |  | 
2 | O=C(Nc1cnn2ccc(N3CCC[C@@H]3c3cc(F)ccc3F)nc12)N1CC[C@H](O)C1 [LOXO-101, larotrectinib, reference compound] | 45.6 | 1.7 | 1.7 | 36 | 1.93 | 23 | 944 | 394 |  |  |  |  |  |  |  |  |  |  | 48 | > 1000
3 | C[C@@H]1CCc2ncc(F)cc2[C@H]2CCCN2c2ccn3ncc(c3n2)C(=O)N1 [LOXO-195, reference compound] |  |  |  |  |  |  |  | 2.7 |  |  |  |  |  | 2.6 | 44 | 4.9 | 24.4 | 6.8 |  | 274
